The values that follow come from patent publication US8993741B2, “SMNdelta7 degron: novel compositions and methods of use” (The Trustees of the University of Pennsylvania, priority 2009, dated 2015).

Peptide text beside a SMILES is read from it. * marks the point of attachment. Cbz = O=C(OCc1ccccc1)* Some results are limits rather than exact numbers.

One assay deals with Luc-SMNΔ7. Description: Luc-SMNΔ7 degradation with proteolysis inhibitors in the presence of CHX. The note with it: for effect on decrease in Luc-SMNΔ7 signal: 5 hours in the presence of CHX. The class given is cell-based, human. Here is the method:
FIG. 5 is a graph depicting the effect of proteasome inhibitors on inhibiting SMNΔ7 degradation. Luciferase activity is measured after application of proteasome inhibitors (MG132 and Lactacystin), the calpain inhibitor (Calpeptin), the autophagy inhibitor (3-methyladenine; 3-MA), and the lysosomal inhibitor (ammonium chloride; NH4Cl) in the presence of CHX for 5 hours. Error bars represent SDs from three independent experiments.
(§1) Cells (293T cells) were transfected with plasmids expressing various constructs including Luc-SMN, Luc-SMNΔ7, GFP-YG+EMLA or GFP-NS. Forty-eight hours after transfection, the cells were treated with CHX (0.1 mg/ml) for various times as indicated and then assayed for luciferase activity. Luciferase activity at each time point was calculated by comparison to those at time 0, which was set to 100%. Luciferase activities were measured using One-Glo reagent (Promega).
SMN was previously shown to be degraded by the proteasome (Burnett et al., 2009, Mol Cell Biol 29(5):1107-15; Chang et al., 2004, Neurochem. Int. 45(7):1107-12). To determine if SMNΔ7 is also degraded by this system, cells expressing Luc-SMNΔ7 were treated with proteasome inhibitors including MG132 and Lactaeystin, for 5 hours in the presence of CHX. […] Inhibitors of other proteolytic activities, such as lysosomal proteases, autophagy, and calpain (N1-14Cl, 3-methyladenine, and calpeptin, respectively) had no effect.

The next assay relates to SMNΔ7. Briefly: MG132 effect on amount of HA-tagged SMNΔ7 (Western blot). The note with it: 10 μM MG132, 16 hours, 293T cells. The class given is cell-based, human. The protocol: (§2) FIG. 3, comprising FIG. 3A through FIG. 3D, is a series of images depicting the importance of residue S270 for the activity of the SMNΔ7-DEG through YG+EMLA. FIG. 3A is a schematic illustration depicting seven residues in the YG box that were each mutated to alanine, as indicated. […] depicts the results of Western blot analyses using an anti-HA tag antibody directed against HA-tagged SMN, SMNΔ7, and SMNΔ7^S270A expressed in 293T cells treated with DMSO or 10 μM MG132 (MG) for 16 hours. Fusion proteins were monitored by, and Magoh was used as a control. FIG. 3C is a graph depicting the quantification of HA-tagged proteins depicted in FIG. 3B and compared to HA-SMN without MG132 treatment. Protein amount (%) for SMNΔ7, and SMNΔ7^S270A are calculated relative to HA-SMN not treated with MG132, that is arbitrarily set to 100%. The fold change of each fusion protein amount upon MG132 treatment is indicated in red above the column. […]
(§3) To identify specific residues in the SMN07-DEG that are important for its activity, mutagenesis of the YG box was performed wherein every second residue was converted to alanine in the context of full-length SMNΔ7 and determined the half-life of each in 293T cells. […] The levels of the tagged SMN proteins were then monitored by Western blots using anti-HA antibody (FIG. 3B).

The subject of the next assay is SMN. Description: MG132 effect on amount of HA-tagged SMN (Western blot). The settings on record: 10 μM MG132, 16 hours, 293T cells. The class given is cell-based, human. Here is the method: as §2, §3
A general note: In western blotting, separated proteins are transferred to a membrane and probed.

The next assay has as its system SMNΔ7^S270A. Description: MG132 effect on amount of HA-tagged SMNΔ7^S270A (Western blot). The settings on record: 10 μM MG132, 16 hours, 293T cells. Type of assay: cell-based, human. Here is the method:
as §2, §3

The subject of a further assay is 293T cells. Briefly: Protein stability assay: luciferase activity of Luc-fused constructs after CHX treatment. Type of assay: cell-based.
From the text: To construct plasmids expressing Luc-fused proteins, the luciferase gene was cloned into pcDNA3.1 vector at HindIII/KpnI sites, then DNA fragments encoding full-length wild type human SMN, SMNΔ7, several deletion mutants of SMNΔ7, and optiPEST were inserted into the KpnI/XhoI sites. SMNΔ7 mutants with single amino acid change were generated by mutating residues in YG+EMLA to alanine by Quickchange site-directed mutagenesis kit (Stratagene).
as §1
A reporter system that recapitulates the differential stability of full-length SMN and SMNΔ7 and allows quantitative assessment of SMNΔ7's instability determinants was developed. […] Forty-eight hours after transfection, cells were treated with the protein synthesis inhibitor cycloheximide (CHX), and luciferase activity was measured at time intervals of up to 10 hours. […]

The subject of a further assay is S5 cells. Briefly: Rescue of S5 cell viability after tetracycline depletion of SMN. Type of assay: cell-based, chicken. The note with it: retroviral expression, one week after tetracycline (1 μg/ml). The protocol:
FIG. 4, comprising FIG. 4A through FIG. 4D, is a series of images depicting the functionality of SMNΔ7^S270A in snRNP assembly and its ability to rescue SMN-deficient cells. FIG. 4 A is a series of panels depicting S5 cells cultured in the presence of tetracycline (1 μg/ml) to deplete endogenous SMN and infected with retroviruses expressing SMN, SMNΔ7, or SMNΔ7^S270A. FIG. 4B is a graph depicting cell growth as in FIG. 4A measured by monitoring the number of live cells at the indicated time points following tetracycline addition. FIG. 4C depicts the results of Western blot analyses of SMN protein in rescued cells (10 days after tetracycline addition). FIG. 4D is a graph depicting SMN complex activity (%) as measured by in vitro snRNP assembly on U4 snRNA in cytoplasmic extracts from rescued cells, using U4ΔSm RNA as a control.
S5 cells were maintained and infected with retroviruses expressing SMN, SMNΔ7, and SMNΔ7^S270A as described (Wang et al., 2001, J. Biol. Chem. 276:9599).
To determine whether SMNΔ7^S270A is a functional SMN protein, a previously established cell system, the S5 cell line, was used to investigate if SMNΔ7^S270A could rescue the viability of SMN-depleted cells. […]

Take `Cn1cnc(N)c2ncnc1-2` [3-methyladenine]: the “effect on decrease in Luc-SMNΔ7 signal” value in the assay on Luc-SMNΔ7 was “no effect”.
Regarding `C[C@@H]1C[C@@H]([C@H](O)CC2CC(=O)NC(=O)C2)C(=O)[C@@H](C)C1` [CHX, cycloheximide], the “decrease in signal (luciferase)” value with Luc-SMNΔ7 (CHX alone, 5 hours, cells expressing Luc-SMNΔ7) was determined as 60%.
Regarding `CC(=O)N[C@@H](CSC(=O)[C@]1([C@@H](O)C(C)C)NC(=O)[C@H](C)[C@@H]1O)C(=O)O` [Lactacystin], the “effect on decrease in Luc-SMNΔ7 signal” value with Luc-SMNΔ7 is listed as “much smaller decrease”.
Regarding `CC(C)C[C@@H](C=O)NC(=O)[C@H](CC(C)C)NC(=O)[C@H](CC(C)C)NC(=O)OCc1ccccc1` [MG132] (Cbz-Leu-Leu-Leu-aldehyde), the “effect on decrease in Luc-SMNΔ7 signal” value in the assay with Luc-SMNΔ7 is on record as “much smaller decrease”. Moreover, the “increase in the amount of SMNΔ7” value in the assay on SMNΔ7 amounted to 3.4 fold. In the assay with SMN, the “effect on the amount of SMN” value was “only a moderate effect”. Moreover, the “effect on the amount of SMNΔ7^S270A” value in the assay on SMNΔ7^S270A is on record as “only a moderate effect”.
On to `Cl.N` [N1-14Cl, ammonium chloride], for which the “effect on decrease in Luc-SMNΔ7 signal” value in the assay on Luc-SMNΔ7 is “no effect”.
Still for that read-out and setting: with `CCCC[C@@H](C=O)NC(=O)[C@H](CC(C)C)NC(=O)OCc1ccccc1` [calpeptin] the entry was “no effect”.
On to “SMN: full-length wild type human survival of motor neurons protein, tested as Luc- or HA-fusion or retrovirally expressed”, for which, in the assay on 293T cells (Luc fusion in 293T cells, CHX 0.1 mg/ml, up to 10 hours), the “half-life (t1/2)” value is over 8 h. Moreover, the “amount of SMN relative to SMNΔ7” value in the assay with 293T cells (after 10 hours of CHX chase) came out at 3 times. The “rescue of viability of SMN-depleted S5 cells” value in the assay on S5 cells is given as “rescued the viability of S5 cells”.
